Several values for one entry are separate records, joined by “and”; a condition that tells them apart may be missing. Equal values may be shown once. Inconclusive results and toxic doses are left out.
Tested on: L1210 leukemia ip in BDF1 mice, survival T/C
Test: NCI In Vivo Anticancer Drug Screen. Data for tumor model L1210 Leukemia (intraperitoneal) in B6D2F1 (BDF1) mice
Details: endpoint: mean survival time, higher = longer survival
Summary of the method: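 Value reflects the ratio of survival in compound-treated mice to survival in vehicle-treated controls, with both groups carrying the same transplanted tumor.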

[1] = dose: 100.0 mg/kg/injection, schedule: Q01DX001 (ip), vehicle: saline
[2] = dose: 200.0 mg/kg/injection, schedule: Q01DX001 (ip), vehicle: saline
[3] = dose: 50.0 mg/kg/injection, schedule: Q01DX009 (ip), vehicle: saline
[4] = dose: 100.0 mg/kg/injection, schedule: Q04DX003 (ip), vehicle: saline with Tween-80
[5] = dose: 200.0 mg/kg/injection, schedule: Q04DX003 (ip), vehicle: saline with Tween-80
[6] = dose: 400.0 mg/kg/injection, schedule: Q04DX003 (ip), vehicle: saline with Tween-80
[7] = dose: 100.0 mg/kg/injection, schedule: Q04DX003 (ip), vehicle: Klucel (hydroxypropylcellulose) (HPC)
[8] = dose: 200.0 mg/kg/injection, schedule: Q04DX003 (ip), vehicle: Klucel (hydroxypropylcellulose) (HPC)
[9] = dose: 400.0 mg/kg/injection, schedule: Q04DX003 (ip), vehicle: Klucel (hydroxypropylcellulose) (HPC)
[10] = dose: 100.0 mg/kg/injection, schedule: Q01DX009 (ip), vehicle: saline
[11] = dose: 200.0 mg/kg/injection, schedule: Q01DX009 (ip), vehicle: saline
[12] = dose: 400.0 mg/kg/injection, schedule: Q01DX001 (ip), vehicle: saline
[13] = dose: 100.0 mg/kg/injection, schedule: Q04DX002 (ip), vehicle: Klucel (hydroxypropylcellulose) (HPC)
[14] = dose: 200.0 mg/kg/injection, schedule: Q04DX002 (ip), vehicle: Klucel (hydroxypropylcellulose) (HPC)

`COCCCN=C(N)c1ccc(NC(=O)c2ccc(C(=O)Nc3ccc(C(N)=NCCCOC)cc3)cc2)cc1` was tested, and the T/C (dose: 0.75 mg/kg/injection, schedule: Q01DX Z (ip), vehicle: saline) was 114 % of control, the T/C (dose: 1.0 mg/kg/injection, schedule: Q01DX006 (iv), vehicle: saline) was 106 % of control and the T/C (dose: 1.0 mg/kg/injection, schedule: Q01DX Z (ip), vehicle: saline) was 119 % of control. The T/C (dose: 1.0 mg/kg/injection, schedule: Q01DX Z (sc), vehicle: saline) was 102 % of control, the T/C (dose: 1.0 mg/kg/injection, schedule: Q02DX004 (im), vehicle: saline) was 96 % of control and the T/C (dose: 2.0 mg/kg/injection, schedule: Q01DX006 (iv), vehicle: saline) was 98 % of control. For the same compound, the T/C (dose: 2.0 mg/kg/injection, schedule: Q01DX Z (sc), vehicle: saline) was 90 % of control, the T/C (dose: 2.0 mg/kg/injection, schedule: Q02DX004 (im), vehicle: saline) was 107 % of control and the T/C (dose: 3.0 mg/kg/injection, schedule: Q01DX Z (ip), vehicle: saline) was 156 % of control and 183 % of control. The T/C (dose: 4.0 mg/kg/injection, schedule: Q01DX006 (iv), vehicle: saline) was 122 % of control, the T/C (dose: 4.0 mg/kg/injection, schedule: Q01DX Z (ip), vehicle: saline) was 223 % of control and the T/C (dose: 4.0 mg/kg/injection, schedule: Q01DX Z (sc), vehicle: saline) was 154 % of control. For the same compound, the T/C (dose: 4.0 mg/kg/injection, schedule: Q02DX004 (im), vehicle: saline) was 106 % of control, the T/C (dose: 6.0 mg/kg/injection, schedule: Q01DX Z (ip), vehicle: saline) was 269 % of control and the T/C (dose: 6.0 mg/kg/injection, schedule: Q01DX Z (oral), vehicle: saline) was 97 % of control. For the same compound, the T/C (dose: 8.0 mg/kg/injection, schedule: Q01DX006 (iv), vehicle: saline) was 189 % of control, the T/C (dose: 8.0 mg/kg/injection, schedule: Q01DX Z (sc), vehicle: saline) was 158 % of control and the T/C (dose: 12.0 mg/kg/injection, schedule: Q01DX Z (oral), vehicle: saline) was 100 % of control. The T/C (dose: 15.0 mg/kg/injection, schedule: Q01DX Z (ip), vehicle: saline) was 115 % of control, the T/C (dose: 16.0 mg/kg/injection, schedule: Q01DX Z (ip), vehicle: saline) was 112 % of control and the T/C (dose: 16.0 mg/kg/injection, schedule: Q01DX Z (sc), vehicle: saline) was 116 % of control. For the same compound, the T/C (dose: 16.0 mg/kg/injection, schedule: Q02DX004 (im), vehicle: saline) was 154 % of control, the T/C (dose: 24.0 mg/kg/injection, schedule: Q01DX Z (oral), vehicle: saline) was 102 % of control and the T/C (dose: 32.0 mg/kg/injection, schedule: Q02DX004 (im), vehicle: saline) was 118 % of control. For the same compound, the T/C (dose: 48.0 mg/kg/injection, schedule: Q01DX Z (oral), vehicle: saline) was 100 % of control, the T/C (dose: 62.5 mg/kg/injection, schedule: Q## X010 (oral), vehicle: saline) was 96 % of control and the T/C (dose: 250.0 mg/kg/injection, schedule: Q## X010 (oral), vehicle: saline) was 119 % of control.

In the case of `NC(CSS(=O)(=O)O)=NCCSc1ccccc1`, the T/C (dose: 12.5 mg/kg/injection, schedule: Q04DX002 (ip), vehicle: Klucel (hydroxypropylcellulose) (HPC)) is reported as 95 % of control, the T/C (dose: 25.0 mg/kg/injection, schedule: Q04DX002 (ip), vehicle: Klucel (hydroxypropylcellulose) (HPC)) is reported as 106 % of control and the T/C (dose: 50.0 mg/kg/injection, schedule: Q04DX002 (ip), vehicle: Klucel (hydroxypropylcellulose) (HPC)) is reported as 106 % of control.

In the case of `O=C(CNC(=O)OCc1ccccc1)NCCCCCCCCCCNC(=O)CNC(=O)OCc1ccccc1`, the T/C (dose: 10.0 mg/kg/injection, schedule: Q01DX Z (ip), vehicle: saline) is reported as 104 % of control, the T/C (dose: 30.0 mg/kg/injection, schedule: Q01DX Z (ip), vehicle: saline) is reported as 90 % of control and the T/C (dose: 100.0 mg/kg/injection, schedule: Q01DX Z (ip), vehicle: saline) is reported as 90 % of control. The T/C (dose: 300.0 mg/kg/injection, schedule: Q01DX Z (ip), vehicle: saline) was 95 % of control.

For `OC1c2cc(Br)ccc2-c2c(F)cc(Br)cc21` (stereo not drawn), the T/C (dose: 100.0 mg/kg/injection, schedule: Q01DX001 (ip), vehicle: carboxymethylcellulose (CMC)) was 100 % of control, the T/C (dose: 200.0 mg/kg/injection, schedule: Q01DX001 (ip), vehicle: carboxymethylcellulose (CMC)) was 109 % of control and the T/C (dose: 400.0 mg/kg/injection, schedule: Q01DX001 (ip), vehicle: carboxymethylcellulose (CMC)) was 103 % of control.

For `O=C(O)CC(Br)CBr` (stereo not drawn), the T/C [1] was 94 % of control and the T/C [2] was 103 % of control.

With `CC(C)c1ccc(/C=N/NC(=O)C[n+]2ccccc2)cc1` the T/C (dose: 12.5 mg/kg/injection, schedule: Q01DX009 (ip), vehicle: saline) was 100 % of control, the T/C (dose: 25.0 mg/kg/injection, schedule: Q01DX009 (ip), vehicle: saline) was 105 % of control and the T/C [3] was 94 % of control.

`O=C(C1C2C=CC(CC2)C1C(=O)N1CCCCC1)N1CCCCC1` (stereo not drawn) was tested, and the T/C [4] was 96 % of control, the T/C [5] was 100 % of control and the T/C [6] was 96 % of control.

In the case of `Cc1ccc(NC(=O)Nc2ccc(S(N)(=O)=O)cc2)c([N+](=O)[O-])c1`, the T/C [7] is reported as 88 % of control, the T/C [8] is reported as 89 % of control and the T/C [9] is reported as 88 % of control.

In the case of `CCOc1ccc(C(=O)Nc2c(C)cc(C)cc2C)cc1`, the T/C (dose: 100.0 mg/kg/injection, schedule: Q01DX009 (ip), vehicle: saline with Tween-80) is reported as 96 % of control, the T/C [4] is reported as 100 % of control and the T/C (dose: 200.0 mg/kg/injection, schedule: Q01DX009 (ip), vehicle: saline with Tween-80) is reported as 96 % of control. For the same compound, the T/C [5] was 93 % of control, the T/C (dose: 400.0 mg/kg/injection, schedule: Q01DX009 (ip), vehicle: saline with Tween-80) was 101 % of control and the T/C [6] was 94 % of control.

For `CCOc1ccccc1C1CCCCC1OS(=O)(=O)c1ccc(C)cc1` (stereo not drawn), the T/C (dose: 50.0 mg/kg/injection, schedule: Q01DX009 (ip), vehicle: acetone) was 92 % of control, the T/C (dose: 100.0 mg/kg/injection, schedule: Q01DX009 (ip), vehicle: acetone) was 94 % of control and 92 % of control and the T/C (dose: 200.0 mg/kg/injection, schedule: Q01DX009 (ip), vehicle: acetone) was 105 % of control and 90 % of control.

For `O=C(NCCCl)Nc1ccc2c(c1)CCC2`, the T/C [7] was 94 % of control and 107 % of control, the T/C [8] was 103 % of control and 90 % of control and the T/C [9] was 92 % of control.

For `O=NSC(c1ccccc1)(c1ccccc1)c1ccccc1`, the T/C (dose: 50.0 mg/kg/injection, schedule: Q01DX009 (ip), vehicle: Klucel (hydroxypropylcellulose) (HPC)) was 94 % of control, the T/C (dose: 100.0 mg/kg/injection, schedule: Q01DX009 (ip), vehicle: Klucel (hydroxypropylcellulose) (HPC)) was 89 % of control and the T/C (dose: 200.0 mg/kg/injection, schedule: Q01DX009 (ip), vehicle: Klucel (hydroxypropylcellulose) (HPC)) was 93 % of control.

With `CCCCCCCCCCCCCCCCCC1=NC(C)CC(C)(C)O1` (stereo not drawn) the T/C [3] was 93 % of control, the T/C [1] was 89 % of control and the T/C [10] was 94 % of control. For the same compound, the T/C (dose: 100.0 mg/kg/injection, schedule: Q04DX003 (ip), vehicle: saline) was 86 % of control, the T/C [2] was 95 % of control and the T/C [11] was 96 % of control. For the same compound, the T/C (dose: 200.0 mg/kg/injection, schedule: Q04DX003 (ip), vehicle: saline) was 94 % of control and the T/C [12] was 91 % of control.

In the case of `NC(=O)N/N=C(\CBr)c1ccc(Br)cc1`, the T/C [10] is reported as 93 % of control.

`CC(=O)/C(N=O)=C(/C)O` was tested, and the T/C [3] was 111 % of control, the T/C [10] was 105 % of control and the T/C [7] was 91 % of control. For the same compound, the T/C [11] was 104 % of control, the T/C [8] was 93 % of control and the T/C (dose: 400.0 mg/kg/injection, schedule: Q01DX001 (ip), vehicle: saline with Tween-80) was 92 % of control. The T/C (dose: 400.0 mg/kg/injection, schedule: Q01DX009 (ip), vehicle: saline) was 111 % of control and the T/C [9] was 87 % of control.

With `COc1ccc(C(=O)c2ccccc2)cc1OC` the T/C [7] was 89 % of control, the T/C [8] was 90 % of control and the T/C [9] was 89 % of control.

With `Nc1nc2ncc(CNc3ncc(C(=O)NC(CCC(=O)O)C(=O)O)s3)nc2c(=O)[nH]1` (stereo not drawn) the T/C (dose: 50.0 mg/kg/injection, schedule: Q01DX001 (ip), vehicle: other) was 105 % of control and the T/C (dose: 100.0 mg/kg/injection, schedule: Q01DX001 (ip), vehicle: other) was 106 % of control.

With `CC1(C)CC(=O)C2C(C1)Nc1ccccc1NC2c1cccc([N+](=O)[O-])c1` (stereo not drawn) the T/C [13] was 109 % of control and the T/C [14] was 103 % of control.

`O=[N+]([O-])c1ccc(P(=O)(O)O)cc1` was tested, and the T/C (dose: 50.0 mg/kg/injection, schedule: Q01DX001 (ip), vehicle: saline) was 103 % of control, the T/C [1] was 101 % of control and the T/C [2] was 107 % of control. For the same compound, the T/C [12] was 115 % of control.

`CCNC(=O)Nc1ccccc1` was tested, and the T/C [13] was 93 % of control and the T/C [14] was 96 % of control.

— PubChem BioAssay AID248 (DTP/NCI, 2004)
